Laboratory results published in the supplement of paper PMC8882468.

Columns and labels:
Assay in all cases: CTG-3D luminescence at 96 h relative to day-0 seeding control (ratio to day 0); higher = more growth / less cytotoxicity
HCI-003.E2 = test system: HCI-003.E2 (organoid from an ER-positive breast cancer xenograft)
Method: (§1)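 PDX-derived breast cancer organoids (PDxO) in 384-well Matrigel plates, 8-point dose (0.000000625-100 uM), 96 h at 37 C; CellTiter-Glo 3D luminescence normalised to the day-0 seeding control (mean of 4 technical replicates over mean of 4 day-0 wells).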

HCI-012 = test system: HCI-012 (organoid from a breast cancer xenograft)
Method: as §1

HCI-015 = test system: HCI-015 (organoid from a triple-negative breast cancer xenograft)
Method: as §1

HCI-016 = test system: HCI-016 (organoid from a triple-negative breast cancer xenograft)
Method: as §1

HCI-019 = test system: HCI-019 (organoid from a triple-negative breast cancer xenograft)
Method: as §1

HCI-023 = test system: HCI-023 (organoid from a triple-negative breast cancer xenograft)
Method: as §1

O=c1[nH]cc(F)c(=O)[nH]1 [5-fluorouracil]
HCI-003.E2
Conditions	CTG-3D luminescence at 96 h
12.5 pM	2.25
0.00025 µM	2.06
0.005 µM	1.93
0.1 µM	2.08
1 µM	1.85
10 µM	1.87
100 µM	0.993
625 fM	2.19

CTG-3D luminescence at 96 h
Conditions	12.5 pM	0.00025 µM	0.005 µM	0.1 µM	1 µM	10 µM	100 µM	625 fM
HCI-012, days in culture: 143	2.31	2.12	1.8	2.12	2.07	1.71	0.413	1.96
HCI-012, days in culture: 162	2.26	2.44	1.98	2.86	1.98	2.16	0.425	2.74
HCI-012, days in culture: 201	2.32	2.31	1.56	1.69	2.12	1.21	1.08	1.85
HCI-015, days in culture: 172	2.81	2	2.42	1.81	1.61	1.12	1.03	2.72
HCI-015, days in culture: 191	2.43	1.43	1.71	0.853	1.35	0.995	0.865	1.37
HCI-015, days in culture: 218	1.85	1.55	1.83	1.77	1.51	1.54	0.999	1.81
HCI-016, days in culture: 153	3.47	1.65	2.39	2.02	2.17	1.8	1.21	3.05
HCI-016, days in culture: 172	2.33	1.93	1.51	1.52	1.52	1.1	1.12	1.92
HCI-016, days in culture: 190	1.67	1.39	1.63	1.35	1.16	1.1	1.11	1.3
HCI-016, days in culture: 199	1.49	1.49	1.44	1.47	1.68	1.21	1.18	1.73
HCI-019, days in culture: 110	2.01	1.66	1.28	2.55	1.05	2.15	1.45	2.02
HCI-019, days in culture: 131	2.46	3.61	3.38	4.08	2.65	2.93	1.89	3.71
HCI-019, days in culture: 152	2.48	2.79	2.59	1.85	1.99	2.54	1.96	2.62
HCI-023, days in culture: 111	1.56	1.34	0.973	1.17	0.928	0.875	0.571	1.57
HCI-023, days in culture: 128	1.51	1.68	1.54	1.89	1.4	1.92	1.01	1.58
